The target in test [1] is T1, human JAK1 (a.a. 837-1142) (Homo sapiens, UniProt P23458).
T1 construct: human JAK1 (a.a. 837-1142); His tag (N); made in house; host or cells: insect cells (baculovirus)
Put plainly: In vitro JAK kinase assay (HTRF, phosphorylation of a biotinylated peptide), JAK1. The format is biochemical. Conditions: Assay Conditions 1 mM ATP. The gist of the method: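 IC50s come from HTRF detection (Eu-Py20, SA-APC, 40 min binding) after 1 h RT reactions with 500 nM biotinylated peptide in Tris pH 7.8 buffer. ATP either 1 mM or Km-level, 90 μM for JAK1 and 30 μM for JAK2; enzymes are baculovirus-expressed His-tagged catalytic domains (JAK1 837-1142, JAK2 828-1132).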
For orientation: In TR-FRET formats the signal depends on donor and acceptor labels being close together.

For test [2], the target named is T2, Jak2 (a.a. 828-1132) (Homo sapiens, UniProt O60674).
T2 construct: Jak2 (a.a. 828-1132); His tag (N); made in house; host or cells: insect cells (baculovirus)
T2 sequence (O60674 828-1132): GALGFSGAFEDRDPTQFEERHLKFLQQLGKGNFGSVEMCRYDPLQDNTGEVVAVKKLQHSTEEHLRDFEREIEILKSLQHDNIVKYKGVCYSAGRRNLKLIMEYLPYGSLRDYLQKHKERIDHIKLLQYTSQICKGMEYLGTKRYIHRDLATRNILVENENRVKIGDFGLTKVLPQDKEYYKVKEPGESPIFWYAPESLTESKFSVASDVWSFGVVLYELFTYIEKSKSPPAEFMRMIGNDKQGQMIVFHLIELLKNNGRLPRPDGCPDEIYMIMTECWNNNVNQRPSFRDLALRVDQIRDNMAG
In words: In vitro JAK kinase assay (HTRF, phosphorylation of a biotinylated peptide), JAK2, reported as JAK2/JAK1 ratio. In kind it is biochemical. Conditions: Assay Conditions 1 mM ATP.

Where a name gives a salt, the structure may show the parent alone.

T1 sequence (P23458 849-1154): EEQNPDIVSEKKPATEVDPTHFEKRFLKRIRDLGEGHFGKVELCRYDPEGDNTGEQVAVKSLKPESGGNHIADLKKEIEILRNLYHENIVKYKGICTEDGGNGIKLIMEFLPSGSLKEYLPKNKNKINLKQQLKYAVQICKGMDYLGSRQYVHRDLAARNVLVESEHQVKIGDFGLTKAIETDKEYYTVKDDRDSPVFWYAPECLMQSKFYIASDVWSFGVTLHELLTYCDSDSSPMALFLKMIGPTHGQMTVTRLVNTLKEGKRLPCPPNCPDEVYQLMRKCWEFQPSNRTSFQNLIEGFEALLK

As usually defined, the IC50 is the concentration needed to halve the response being measured. A lower IC50 goes with higher potency. On to `CCCS(=O)(=O)c1ccc(F)c(N2CC[C@H]([C@H](CC#N)n3cc(-c4ncnc5[nH]ccc45)cn3)C2)n1` [Example 99, trifluoroacetate], for which the half-inhibitory concentration (IC50) in test [1] was under 50 nM. Besides, the “JAK2/JAK1 IC50 ratio” value in test [2] stood at 7.6.
On to `Cc1ccnc(N2CC[C@H]([C@H](CC#N)n3cc(-c4ncnc5[nH]ccc45)cn3)C2)c1C#N` [Example 100, 2-((S)-3-((S)-1-(4-(7H-pyrrolo[2,3-d]pyrimidin-4-yl)-1H-pyrazol-1-yl)-2-cyanoethyl)pyrrolidin-1-yl)-4-methylnicotinonitrile trifluoroacetate], for which the IC50 in test [1] is under 50 nM. Moreover, in test [2], the “JAK2/JAK1 IC50 ratio” value is on record as over 7.4.
`COCc1c(F)cnc(N2CC[C@H]([C@H](CC#N)n3cc(-c4ncnc5[nH]ccc45)cn3)C2)c1F` [Example 101, (3S)-3-{(3S)-1-[3,5-difluoro-4-(methoxymethyl)pyridin-2-yl]pyrrolidin-3-yl}-3-[4-(7H-pyrrolo[2,3-d]pyrimidin-4-yl)-1H-pyrazol-1-yl]propanenitrile trifluoroacetate] yielded an IC50 in test [1] of under 50 nM. The “JAK2/JAK1 IC50 ratio” value in test [2] was found to be 4.0.
`N#CC[C@@H]([C@H]1CCN(c2ncc3ncsc3n2)C1)n1cc(-c2ncnc3[nH]ccc23)cn1` [Example 102, (3S)-3-[4-(7H-pyrrolo[2,3-d]pyrimidin-4-yl)-1H-pyrazol-1-yl]-3-[(3S)-1-[1,3]thiazolo[5,4-d]pyrimidin-5-ylpyrrolidin-3-yl]propanenitrile bis(trifluoroacetate)]: the 50% inhibitory concentration (IC50) in test [1] is under 50 nM. The “JAK2/JAK1 IC50 ratio” value in test [2] turned out to be 12.8.
`N#CC[C@@H]([C@H]1CCN(c2nccc(C(F)F)c2C#N)C1)n1cc(-c2ncnc3[nH]ccc23)cn1` [Example 103, 2-((3S)-3-{(1S)-2-cyano-1-[4-(7H-pyrrolo[2,3-d]pyrimidin-4-yl)-1H-pyrazol-1-yl]ethyl}pyrrolidin-1-yl)-4-(difluoromethyl)nicotinonitrile bis(trifluoroacetate)] yielded an IC50 in test [1] of under 50 nM. For the same compound, the “JAK2/JAK1 IC50 ratio” value in test [2] was found to be 22.8.
The matching figures for `COc1ncc(F)c(N2CC[C@H]([C@H](CC#N)n3cc(-c4ncnc5[nH]ccc45)cn3)C2)n1` [Example 104, (S)-3-(4-(7H-pyrrolo[2,3-d]pyrimidin-4-yl)-1H-pyrazol-1-yl)-3-((S)-1-(5-fluoro-2-methoxypyrimidin-4-yl)pyrrolidin-3-yl)propanenitrile trifluoroacetate salt]: under 50 nM and 5.9.
The like results for `N#CC[C@@H]([C@H]1CCN(c2nc(Cl)ccc2N)C1)n1cc(-c2ncnc3[nH]ccc23)cn1` [Example 105, (S)-3-(4-(7H-pyrrolo[2,3-d]pyrimidin-4-yl)-1H-pyrazol-1-yl)-3-((S)-1-(3-amino-6-chloropyridin-2-yl)pyrrolidin-3-yl)propanenitrile trifluoroacetate salt] were, in that order, under 50 nM and 3.0.
With `N#CC[C@@H]([C@H]1CCN(c2ccnnc2C#N)C1)n1cc(-c2ncnc3[nH]ccc23)cn1` [Example 106, 4-((S)-3-((S)-1-(4-(7H-pyrrolo[2,3-d]pyrimidin-4-yl)-1H-pyrazol-1-yl)-2-cyanoethyl)pyrrolidin-1-yl) pyridazine-3-carbonitrile trifluoroacetate salt], the IC50 in test [1] is under 50 nM. Besides, the “JAK2/JAK1 IC50 ratio” value in test [2] was found to be 12.6.
Regarding `N#CC[C@@H]([C@H]1CCN(c2ncc(C#N)cc2F)C1)n1cc(-c2ncnc3[nH]ccc23)cn1` [Example 107, 6-((S)-3-((S)-1-(4-(7H-pyrrolo[2,3-d]pyrimidin-4-yl)-1H-pyrazol-1-yl)-2-cyanoethyl)pyrrolidin-1-yl)-5-fluoronicotinonitrile trifluoroacetate salt], the IC50 in test [1] is under 50 nM. Further, the “JAK2/JAK1 IC50 ratio” value in test [2] stood at 4.8.
In test [1], `N#CC[C@@H]([C@H]1CCN(c2ncc(F)cc2C#N)C1)n1cc(-c2ncnc3[nH]ccc23)cn1` [Example 108, 2-((S)-3-((S)-1-(4-(7H-pyrrolo[2,3-d]pyrimidin-4-yl)-1H-pyrazol-1-yl)-2-cyanoethyl)pyrrolidin-1-yl)-5-fluoronicotinonitrile trifluoroacetate salt] displayed an IC50 of under 50 nM. Also, in test [2], the “JAK2/JAK1 IC50 ratio” value amounted to 5.7.
In the case of `Cc1cnc(N2CC[C@H]([C@H](CC#N)n3cc(-c4ncnc5[nH]ccc45)cn3)C2)c(C#N)c1` [Example 109, 2-((S)-3-((S)-1-(4-(7H-pyrrolo[2,3-d]pyrimidin-4-yl)-1H-pyrazol-1-yl)-2-cyanoethyl)pyrrolidin-1-yl)-5-methylnicotinonitrile trifluoroacetate salt], in test [1], the half-inhibitory concentration (IC50) was under 50 nM. In test [2], the “JAK2/JAK1 IC50 ratio” value amounted to 5.0.
Compound `N#CC[C@@H]([C@H]1CCN(c2ncnc(C(F)F)c2C#N)C1)n1cc(-c2ncnc3[nH]ccc23)cn1` [Example 110, 4-((S)-3-((S)-1-(4-(7H-pyrrolo[2,3-d]pyrimidin-4-yl)-1H-pyrazol-1-yl)-2-cyanoethyl)pyrrolidin-1-yl)-6-(difluoromethyl)pyrimidine-5-carbonitrile trifluoroacetate salt] came in with an IC50 in test [1] of under 50 nM. For the same compound, the “JAK2/JAK1 IC50 ratio” value in test [2] was determined as 17.6.
For the compound `N#CC[C@@H]([C@H]1CCN(c2cccc(C(F)F)c2C#N)C1)n1cc(-c2ncnc3[nH]ccc23)cn1` [Example 111, 2-((S)-3-((S)-1-(4-(7H-pyrrolo[2,3-d]pyrimidin-4-yl)-1H-pyrazol-1-yl)-2-cyanoethyl)pyrrolidin-1-yl)-6-(difluoromethyl)benzonitrile trifluoroacetate salt], the IC50 in test [1] was under 50 nM. Besides, in test [2], the “JAK2/JAK1 IC50 ratio” value worked out at 37.6.
The like results for `COCc1cccc(N2CC[C@H]([C@H](CC#N)n3cc(-c4ncnc5[nH]ccc45)cn3)C2)c1C#N` [Example 112, 2-((S)-3-((S)-1-(4-(7H-pyrrolo[2,3-d]pyrimidin-4-yl)-1H-pyrazol-1-yl)-2-cyanoethyl)pyrrolidin-1-yl)-6-(methoxymethyl)benzonitrile] were, in that order, under 50 nM and 35.7.
The matching figures for `N#Cc1ncccc1N1CC[C@H](C(CF)n2cc(-c3ncnc4[nH]ccc34)cn2)C1` (stereo partly drawn) [Example 117, 3-((3S)-3-{2-fluoro-1-[4-(7H-pyrrolo[2,3-d]pyrimidin-4-yl)-1H-pyrazol-1-yl]ethyl}pyrrolidin-1-yl)pyridine-2-carbonitrile trifluoroacetate]: under 50 nM and 3.7.
Compound `N#Cc1cccnc1N1CC[C@H](C(CF)n2cc(-c3ncnc4[nH]ccc34)cn2)C1` (stereo partly drawn) [Example 118, 2-((3S)-3-{2-fluoro-1-[4-(7H-pyrrolo[2,3-d]pyrimidin-4-yl)-1H-pyrazol-1-yl]ethyl}pyrrolidin-1-yl)nicotinonitrile trifluoroacetate] gave an IC50 in test [1] of under 50 nM. For the same compound, the “JAK2/JAK1 IC50 ratio” value in test [2] amounted to 2.8.
The matching figures for `O=S1(=O)CCc2ccc(N3CC[C@H](C(CF)n4cc(-c5ncnc6[nH]ccc56)cn4)C3)nc21` (stereo partly drawn) [Example 119, 4-(1-{1-[(3S)-1-(1,1-dioxido-2,3-dihydrothieno[2,3-b]pyridin-6-yl)pyrrolidin-3-yl]-2-fluoroethyl}-1H-pyrazol-4-yl)-7H-pyrrolo[2,3-d]pyrimidine trifluoroacetate]: under 50 nM and 7.6.
The like results for `N#Cc1ccnc(N2CC[C@H](C(CF)n3cc(-c4ncnc5[nH]ccc45)cn3)C2)c1C#N` (stereo partly drawn) [Example 120, 2-((3S)-3-(1-(4-(7H-pyrrolo[2,3-d]pyrimidin-4-yl)-1H-pyrazol-1-yl)-2-fluoroethyl)pyrrolidin-1-yl)pyridine-3,4-dicarbonitrile trifluoroacetate] were, in that order, under 50 nM and 3.5.
As for `N#Cc1cccc(N2CC[C@H](C(CF)n3cc(-c4ncnc5[nH]ccc45)cn3)C2)c1C#N` (stereo partly drawn) [Example 121, 3-((3S)-3-{2-fluoro-1-[4-(7H-pyrrolo[2,3-d]pyrimidin-4-yl)-1H-pyrazol-1-yl]ethyl}pyrrolidin-1-yl)phthalonitrile trifluoroacetate], the half-maximal inhibitory concentration (IC50) in test [1] was under 50 nM. In test [2], the “JAK2/JAK1 IC50 ratio” value amounted to 4.4.
For the compound `N#CC[C@@H]([C@H]1CCN(c2nccc(I)c2C#N)C1)n1cc(-c2ncnc3[nH]ccc23)cn1` [Example 122, 2-((3S)-3-{(1S)-2-cyano-1-[4-(7H-pyrrolo[2,3-d]pyrimidin-4-yl)-1H-pyrazol-1-yl]ethyl}pyrrolidin-1-yl)-4-iodonicotinonitrile trifluoroacetate], in test [1], the IC50 is under 50 nM. For the same compound, the “JAK2/JAK1 IC50 ratio” value in test [2] is 188.0.
In test [1], `N#CC[C@@H]([C@H]1CCN(c2ccnc(Cl)c2C#N)C1)n1cc(-c2ncnc3[nH]ccc23)cn1` [Example 123, 2-chloro-4-((3S)-3-{(1S)-2-cyano-1-[4-(7H-pyrrolo[2,3-d]pyrimidin-4-yl)-1H-pyrazol-1-yl]ethyl}pyrrolidin-1-yl)nicotinonitrile trifluoroacetate] gave a 50% inhibitory concentration (IC50) of under 50 nM. Besides, the “JAK2/JAK1 IC50 ratio” value in test [2] is over 16.7.
The matching figures for `N#CC[C@@H]([C@H]1CCN(c2ccnc(C#N)c2C#N)C1)n1cc(-c2ncnc3[nH]ccc23)cn1` [Example 124, 4-((3S)-3-{(1S)-2-cyano-1-[4-(7H-pyrrolo[2,3-d]pyrimidin-4-yl)-1H-pyrazol-1-yl]ethyl}pyrrolidin-1-yl)pyridine-2,3-dicarbonitrile trifluoroacetate]: under 50 nM and over 10.5.
Regarding `N#CC[C@@H]([C@H]1CCN(c2ccc(Cl)nc2Cl)C1)n1cc(-c2ncnc3[nH]ccc23)cn1` [Example 125, (3S)-3-[(3S)-1-(2,6-dichloropyridin-3-yl)pyrrolidin-3-yl]-3-[4-(7H-pyrrolo[2,3-d]pyrimidin-4-yl)-1H-pyrazol-1-yl]propanenitrile trifluoroacetate], in test [1], the IC50 is under 50 nM. For the same compound, in test [2], the “JAK2/JAK1 IC50 ratio” value is listed as 132.5.

Values taken from US8716303B2, “N-(hetero)aryl-pyrrolidine derivatives of pyrazol-4-yl-pyrrolo[2,3-d]pyrimidines and pyrrol-3-yl-pyrrolo[2,3-d]pyrimidines as janus kinase inhibitors” (Incyte Corporation, priority 2009, dated 2014).
